Measurements reported in patent US10130668B2, “Composition comprising Dendropanax morbifera extract or compound derived therefrom as active ingredient for preventing and treating benign prostatic hyperplasia” (priority 2012, dated 2018).
Several values for one entry are separate records, joined by “and”; a condition that tells them apart may be missing. Identical values can stand only once. Entries after “also recorded” stand apart in the source; their conditions may differ.

Key:
[1] = tested on: mouse model with benign prostatic hyperplasia; test: Prostate size in testosterone-induced benign prostatic hyperplasia animal model; format: in vivo, Sprague Dawley mice
Experimental: First of all, the animals used for experiments were 11-week old male Sprague Dawley mice, which were purchased from Damul Science Co. (Daejeon, Republic of Korea). […] As a positive control group, the finasteride (2 mg/kg/day) was used and the Dendropanax morbifera extract was administered for 2 groups (0.5 and 2 mg/kg). 3 weeks after the drug administration, the mice were sacrificed and the results were observed. V, vehicle administration group; CTL, control group; TP, testosterone-propionate administration group; FS, finasteride administration group; […] CMC, carboxymethylcellulose administration group. […] From the previously described experiment schedule, blood and prostate were collected after measuring the body weight and sacrificing on the day after the last day of administration. The weight of removed prostate was measured after removing the surrounding fats and foreign substances and the weight ratio of prostate to body was calculated by the following equation and the result is listed in Table 4.

[2] = tested on: PSA (prostate specific antigen); test: PSA content in blood of benign prostatic hyperplasia animal model (ELISA); format: in vivo, Sprague Dawley mice; conditions: TP + drug 2 mg/kg
Excerpt: First of all, the animals used for experiments were 11-week old male Sprague Dawley mice, which were purchased from Damul Science Co. (Daejeon, Republic of Korea). They were provided with hard food and water frequently and were used in experiments after a week of adaptation period for laboratory environment and the animal experiments conducted herein were approved by Chonnam National University animal experiment ethics committee (IRB) (CNU IACUC-YB-R-2012-9).
The male Sprague Dawley mice were divided into the groups such as vehicle control group (V-CTL) that is an experimental group, the group administered with testosterone only (TP-CTL), the group administered with finasteride as positive control for testosterone (TP+FS) and the groups administered with Dendropanax morbifera (TP+DMH), and for each group, n was equal to 4 and overall experimental procedure is as illustrated in Table 3. […] As a positive control group, the finasteride (2 mg/kg/day) was used and the Dendropanax morbifera extract was administered for 2 groups (0.5 and 2 mg/kg).
From the sacrificed mouse in the above example, the plasma was isolated from blood and the content of PSA was determined. PSA measurement was conducted using ELISA (MyBiosource, Arizona, USA) according to the manufacturer's experimental protocol and presented as pg/mL content.

[3] = tested on: PSA (prostate specific antigen) mRNA, AR target gene; test: PSA mRNA expression in LNCaP⋅FGC cells; conditions: 48 hours
Experimental: For the analysis of anti-androgen activity, the LNCaP⋅FGC cells, an androgen-dependent prostate cancer cell line, were used and the level of mRNA of PSA (Prostate specific antigen), which is one of the AR target genes, in prostate cancer was measured.

CC(C)(C)NC(=O)[C@H]1CC[C@H]2[C@@H]3CC[C@H]4NC(=O)C=C[C@]4(C)[C@H]3CC[C@]12C [FS, finasteride]
Weight of prostate ([1]; TP 3 mg/kg s.c. + drug 2 mg/kg p.o. daily for 3 weeks): 0.95 ± 0.12 g | prostate %/body weight (w/w) ([1]; TP + drug 2 mg/kg p.o.): *0.22 ± 0.018% | % TP-CTL ratio ([1]; TP + drug 2 mg/kg p.o., relative to testosterone-only control): 74.3% and 74.3 ± 3.2% | % V-CTL ratio ([1]; TP + drug 2 mg/kg p.o., relative to vehicle control): 185.7 ± 15.1% | % Vehicle control ([2]; blood PSA): 18.7 ± 5.0% | % TP control ([2]; blood PSA, relative to TP (3 mg/kg) only): 34.6% | PSA ([2]; plasma): *323.0 ± 85.0 pg/mL

C=CC(O)C#CC#CC/C=C\CCCCCCCC(=O)O (stereo not shown) [HS7, (9Z)-16-hydroxy-9,17-octadecadiene-12,14-diynoic acid]
mRNA expression of PSA [3]: inhibit; also recorded: most effective

C=C[C@H](O)C#CC#CC=CC(O)CCCCCCCC(=O)O (stereo partly drawn) [HS3, 9,16S-dihydroxy-10,17-octadecadiene-12,14-diynoic acid]
mRNA expression of PSA [3]: inhibit

C=CC(O)C#CC#CC=C[C@H](O)CCCCCCCC(=O)O (stereo partly drawn) [HS5, 9,16R-dihydroxy-10,17-octadecadiene-12,14-diynoic acid]
mRNA expression of PSA [3]: inhibit
